Data taken from patent US7977512B2, “Amine derivative, and production method and use thereof” (Kureha Corporation, priority 2005, dated 2011).
Structures can show the parent of a compound that is named as a salt.

System: Pseudoperonospora cubensis
Assay: Protection test of Pseudoperonospora cubensis on cucumber cotyledons
Assay type: in vivo
Details: 144 h, spraying concentration 1000 ppm, water dispersible powder sprayed onto cucumber cotyledons (var. Sagami-Hanjiro) one day before inoculation, incidence scored six days after inoculation, read-out: Protective value
Protocol: Water dispersible powders were prepared in the same manner as in Formulation Example 2 using the compound (2a), (2aa), (2b), (2ba), (15), (16), (17), (18), (19), or (20). The each water dispersible powder was diluted with water to a predetermined concentration (1000 mg/l) and suspended. The diluted suspension was sprayed onto cucumber cotyledons (var. Sagami-Hanjiro) grown in a rectangular plastic pot (6.4 cm×6.4 cm) at 100 1/10 a. After air-drying the sprayed leaves one day, a Pseudoperonospora cubensis spore suspension was sprayed onto the leaves to inoculate, and the leaves were maintained at 25° C. under high humidity conditions. After six days from the inoculation, the incidence of Pseudoperonospora cubensis was investigated according to the following criteria. The protective value is calculated according to the following equation 1.
Protective value(%)=(1−average incidence in sprayed area/average incidence in non-sprayed area)×100 [Equation 1]

| SMILES | pest or weed control at 1000 ppm [%] |
| --- | --- |
| CCCN(CCC)CCCCNCc1ccc(C#N)cc1 [(2a), 4-[(4-dipropylaminobutyl)amino]methylbenzonitrile] | 100 |
| CCCN(CCC)CCCCN(C)Cc1ccc(C#N)cc1 [(2b), 4-[(4-dipropylaminobutyl)methylamino]methylbenzonitrile] | 100 |
| CCCN(CCC)CCCCN(Cc1ccc(Br)cc1)Cc1ccc(C#N)cc1 [(15), 4-{[(4-bromobenzyl)-(4-dipropylaminobutyl)amino]methyl}benzonitrile] | 100 |
| CCCN(CCC)CCCCN(Cc1ccc(C#N)cc1)Cc1ccc(N(CC)CC)cc1 [(16), 4-{[(4-diethylaminobenzyl)-(4-dipropylaminobutyl)amino]methyl}benzonitrile] | 100 |
| CCCN(CCC)CCCCN(Cc1ccc(C#N)cc1)Cc1ccc(C)o1 [(17), 4-{[(4-dipropylaminobutyl)-(5-methylfuran-2-ylmethyl)amino]methyl}benzonitrile] | 100 |
| CCCN(CCC)CCCCN(Cc1ccc(C#N)cc1)Cc1ccc[nH]1 [(18), 4-{[(4-dipropylaminobutyl)-(1H-pyrrol-2-ylmethyl)amino]methyl}benzonitrile] | 100 |
| CCCN(CCC)CCCCN(Cc1ccc(C#N)cc1)Cc1ccc(OC)cc1 [(19), 4-{[(4-dipropylaminobutyl)-(4-methoxybenzyl)amino]-methyl}-benzonitrile] | 90 |
| CCCN(CCC)CCCCN(CC(=O)OCc1ccccc1)Cc1ccc(C#N)cc1 [(20), [(4-cyanobenzyl)-(4-dipropylaminobutyl)amino]benzyl acetate] | 100 |

System: not given
Assay: not given
Details: not given

| melting point [°C] | SMILES |
| --- | --- |
| 105 to 106 | CCCN(CCC)CCCCN(CCOC(C)=O)Cc1ccc(CN)cc1.Cl |
| 205 to 210 | CCCN(CCC)CCCCNCc1ccc(CN)cc1.Cl |

| SMILES | melting point [°C] |
| --- | --- |
| CCCN(CCC)CCCCNCc1ccc(C#N)cc1 (as salt: hydrochloride) [(2aa), 4-[(4-dipropylaminobutyl)amino]methylbenzonitrile hydrochloride] | 198 to 200 |
